In ChEMBL document CHEMBL4308890, “A carbapenem-based fluorescence assay for the screening of metallo-β-lactamase inhibitors” (Bioorg Med Chem Lett, 2019) one finds inhibition and IC50 data, which are given here for three compounds.

The term inhibition denotes the relative decrease from the control value, in per cent. Low values mean a weak effect, high ones a strong effect. As usually defined, the IC50 is the point on the concentration scale where inhibition reaches its midpoint. A high value points to a need for much substance.

Test [1] relates to Aeromonas hydrophila subsp. hydrophila ATCC 7966. Briefly: Inhibition of Aeromonas hydrophila ATCC 7966 CphA expressed in Escherichia coli LMG194 at 50 uM using CPC-1 as substrate preincubated for 10 mins followed by substrate addition by fluorescence assay relative to control.
A short description of test [2]: Inhibition of Aeromonas hydrophila ATCC 7966 CphA expressed in Escherichia coli LMG194 using CPC-1 as substrate preincubated for 10 mins followed by substrate addition by fluorescence assay. Further details: species or system Aeromonas hydrophila subsp. hydrophila ATCC 7966.
Test [3] can be described thus: Inhibition of Aeromonas hydrophila ATCC 7966 NDM1 expressed in Escherichia coli LMG194 using CPC-1 as substrate preincubated for 10 mins followed by substrate addition by fluorescence assay. More on the design: species or system Aeromonas hydrophila subsp. hydrophila ATCC 7966.
Test [4] can be described thus: Inhibition of Aeromonas hydrophila ATCC 7966 beta-lactamase L1 expressed in Escherichia coli LMG194 using CPC-1 as substrate preincubated for 10 mins followed by substrate addition by fluorescence assay. More on the design: species or system Aeromonas hydrophila subsp. hydrophila ATCC 7966.
Test [5] is described as follows: Inhibition of Aeromonas hydrophila ATCC 7966 beta-lactamase L1 expressed in Escherichia coli LMG194 using FC3 as substrate preincubated for 10 mins followed by substrate addition by fluorescence assay. Further details: species or system Aeromonas hydrophila subsp. hydrophila ATCC 7966.
Test [6] can be described thus: Inhibition of Aeromonas hydrophila ATCC 7966 IMP1 expressed in Escherichia coli LMG194 using FC3 as substrate preincubated for 10 mins followed by substrate addition by fluorescence assay. More on the design: species or system Aeromonas hydrophila subsp. hydrophila ATCC 7966.
Test [7] can be described thus: Inhibition of Aeromonas hydrophila ATCC 7966 NDM1 expressed in Escherichia coli LMG194 using FC3 as substrate preincubated for 10 mins followed by substrate addition by fluorescence assay. Further details: species or system Aeromonas hydrophila subsp. hydrophila ATCC 7966.
Test [8] can be described thus: Inhibition of Aeromonas hydrophila ATCC 7966 IMP1 expressed in Escherichia coli LMG194 using CPC-1 as substrate preincubated for 10 mins followed by substrate addition by fluorescence assay. More on the design: species or system Aeromonas hydrophila subsp. hydrophila ATCC 7966.
A short description of test [9]: Inhibition of Aeromonas hydrophila ATCC 7966 CphA expressed in Escherichia coli LMG194 using imipenem as substrate. More on the design: species or system Aeromonas hydrophila subsp. hydrophila ATCC 7966.

As for `O=c1c2ccccc2[se]n1-c1ccccc1`, the inhibition in test [1] is < 50%.
`OCC(S)CS` (stereo not given) [DIMERCAPROL]: the inhibition in test [1] was > 80%. Moreover, the IC50 came to 7.8 µM in test [2]; 1.5 µM in test [3]; 5 µM in test [4]; 2.6 µM in test [5]; 6.2 µM in test [6]; 1 µM in [7]. Besides, half-maximal inhibition in test [8] (IC50) required 7.1 µM.
Regarding `O=C(O)c1cccc(C(=O)O)n1` [DIPICOLINIC ACID], the IC50 came out at 61.5 µM in test [2]; 8.8 µM in [3]; 29.4 µM in test [6]; 6.2 µM in test [7]; 23.6 µM in test [8]; 88.4 µM in test [9].
